# Laboratory results taken from US20230135524A1, “ARYL HYDANTOIN HETEROCYCLES AND METHODS OF USE” (The United States of America,as represented by the …, priority 2020, published 2023).
# How the values were obtained:
# Glucocorticoid Receptor = target: T1, Glucocorticoid Receptor (Homo sapiens, UniProt P04150); test: Radioligand competition binding, [3H] dexamethasone; details: competition with 0.5 nM [3H] dexamethasone
# T1 sequence (P04150 1-777): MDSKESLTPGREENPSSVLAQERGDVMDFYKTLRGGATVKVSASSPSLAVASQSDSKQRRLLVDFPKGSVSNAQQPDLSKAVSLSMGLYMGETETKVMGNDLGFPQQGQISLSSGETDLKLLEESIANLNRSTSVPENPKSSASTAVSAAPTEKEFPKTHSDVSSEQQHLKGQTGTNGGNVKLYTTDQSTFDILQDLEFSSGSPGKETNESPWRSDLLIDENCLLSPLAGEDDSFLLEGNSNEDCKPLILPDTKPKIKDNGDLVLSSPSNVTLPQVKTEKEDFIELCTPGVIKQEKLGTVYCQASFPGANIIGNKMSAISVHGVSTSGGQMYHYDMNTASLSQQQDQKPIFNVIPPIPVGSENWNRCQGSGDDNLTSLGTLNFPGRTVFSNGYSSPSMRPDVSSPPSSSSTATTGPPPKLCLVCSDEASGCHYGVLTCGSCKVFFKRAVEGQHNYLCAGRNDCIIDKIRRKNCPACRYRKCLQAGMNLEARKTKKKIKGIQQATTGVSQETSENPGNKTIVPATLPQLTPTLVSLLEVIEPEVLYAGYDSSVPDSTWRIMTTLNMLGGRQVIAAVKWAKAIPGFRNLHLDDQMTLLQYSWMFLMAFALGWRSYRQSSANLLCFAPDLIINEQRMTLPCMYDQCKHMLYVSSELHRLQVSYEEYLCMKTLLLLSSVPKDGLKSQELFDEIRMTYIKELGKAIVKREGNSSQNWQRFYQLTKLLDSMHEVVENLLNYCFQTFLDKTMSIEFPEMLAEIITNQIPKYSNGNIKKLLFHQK
# Method: (§1) Binding assays were performed via competition with radioactive ligands across a range of dose of compounds 15a and 19d. For aldosterone binding, the aldosterone receptor was incubated for 20 hours with […] aldosterone. Similarly, the androgen receptor was co-incubated with 0.5 nM of [^3H] methyltrienolone, the estrogen receptor alpha was co-incubated with 0.5 nM [^3H] estradiol, the glucocorticoid receptor with 0.5 nM [^3H] dexamethasone, and the progesterone receptor with 0.5 nM [^3H] progesterone as parent ligands.
# LNCaP ARin vivo = test: IncuCyte % confluence cell growth inhibition, LNCaP ARin vivo; format: cell-based; details: Homo sapiens, read-out: IC50 values (μM), LNCaP ARin vivo
# Method: (§2) Images were then analyzed to discern the % confluence of cells in each well. IC50 values were calculated from dose response curves of the % cell growth inhibition relative to DMSO control at the same time point per each cell line.
# LNCAP AR = test: IncuCyte % confluence cell growth inhibition, LNCAP AR; format: cell-based; details: read-out: IC50 values (μM), LNCAP AR
# Method: as §2
# Androgen Receptor = target: T2, Androgen Receptor (UniProt P10275); test: Radioligand competition binding, [3H] methyltrienolone; details: competition with 0.5 nM [3H] methyltrienolone
# T2 sequence (P10275 1-920): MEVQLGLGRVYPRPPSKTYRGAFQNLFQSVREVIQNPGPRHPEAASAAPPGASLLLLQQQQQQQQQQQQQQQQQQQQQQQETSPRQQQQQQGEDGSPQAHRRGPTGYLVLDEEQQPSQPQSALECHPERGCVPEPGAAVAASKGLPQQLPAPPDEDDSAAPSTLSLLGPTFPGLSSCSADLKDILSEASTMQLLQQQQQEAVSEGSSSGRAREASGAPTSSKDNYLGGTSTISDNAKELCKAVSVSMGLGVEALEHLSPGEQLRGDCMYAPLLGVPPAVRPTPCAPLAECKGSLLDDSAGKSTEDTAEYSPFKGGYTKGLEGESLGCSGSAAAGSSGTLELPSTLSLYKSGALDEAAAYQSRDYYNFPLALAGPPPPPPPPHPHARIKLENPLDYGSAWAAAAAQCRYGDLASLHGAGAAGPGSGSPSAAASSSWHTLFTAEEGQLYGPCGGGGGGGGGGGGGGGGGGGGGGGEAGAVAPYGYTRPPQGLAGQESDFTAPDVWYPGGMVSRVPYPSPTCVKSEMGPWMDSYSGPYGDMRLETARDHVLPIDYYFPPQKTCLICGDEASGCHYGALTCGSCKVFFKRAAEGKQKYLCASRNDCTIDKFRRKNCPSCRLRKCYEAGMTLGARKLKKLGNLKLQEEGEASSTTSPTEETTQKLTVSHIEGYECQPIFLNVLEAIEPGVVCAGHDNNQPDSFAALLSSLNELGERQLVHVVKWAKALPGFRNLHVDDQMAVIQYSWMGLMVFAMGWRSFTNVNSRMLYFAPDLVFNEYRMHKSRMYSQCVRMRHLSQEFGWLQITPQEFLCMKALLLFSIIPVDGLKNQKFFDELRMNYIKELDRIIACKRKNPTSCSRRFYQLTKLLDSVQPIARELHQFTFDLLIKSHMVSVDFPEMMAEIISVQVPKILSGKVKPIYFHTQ
# Method: as §1
# 22Rv1 = test: IncuCyte % confluence cell growth inhibition, 22Rv1; format: cell-based; details: Homo sapiens, 22Rv1, read-out: IC50 values (μM), 22Rv1
# Method: as §2
# LNCaP ARF876L = test: IncuCyte % confluence cell growth inhibition, LNCaP ARF876L; format: cell-based; details: Homo sapiens, AR-positive, AR mutation F876L, % cell growth inhibition relative to DMSO
# Method: as §2
# PC3 = test: IncuCyte % confluence cell growth inhibition, PC3; format: cell-based; details: Homo sapiens, PC-3, read-out: IC50 values (μM), PC3
# Method: as §2
# DU145 = test: IncuCyte % confluence cell growth inhibition, DU145; format: cell-based; details: Homo sapiens, DU-145, read-out: IC50 values (μM), DU145
# Method: as §2
SMILES,IC50 (Glucocorticoid Receptor) [nM],IC50 (LNCaP ARin vivo) [µM],IC50 (LNCAP AR) [µM],IC50 (Androgen Receptor) [nM],IC50 (22Rv1) [µM],IC50 (LNCaP ARF876L) [µM],IC50 (PC3) [µM],IC50 (DU145) [µM]
"CC1(C)C(=O)N(c2ccc(C#N)c(C(F)(F)F)c2)C(=S)N1Cc1ccc(-c2c[nH]nn2)cc1 [Compound 15a, 4-(3-(4-(1H-1,2,3-triazol-4-yl)benzyl)-4,4-dimethyl-5-oxo-2-thioxoimidazolidin-1-yl)-2-(trifluoromethyl)benzonitrile]",> 10000,18.5,17,12.5,18.3,21,59.8,37.3
"CC1(C)C(=O)N(c2ccc(C#N)c(C(F)(F)F)c2)C(=S)N1Cc1ccc(-c2c[nH]nn2)cc1F [Compound 19d, 4-(3-(2-Fluoro-4-(1H-1,2,3-triazol-4-yl)benzyl)-4,4-dimethyl-5-oxo-2-thioxoimidazolidin-1-yl)-2-(trifluoromethyl)benzonitrile]",> 10000,28.2,28.2,9.3,26.9,22.3,44.8,53.6
